Data taken from PubChem BioAssay (NCI).
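Assay format: 96-well plates, 48-hour exposure. The concentration for full growth arrest is given as TGI.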

What was measured:
Experiment in all cases: NCI anticancer screen, dose series, 48 h
A549 NSCLC = system: A549 NSCLC
U251 CNS = system: U251 CNS
BT-549 breast = system: BT-549 breast
NCI-H23 lung = system: NCI-H23 lung
UACC-62 melanoma = system: UACC-62 melanoma
UACC-257 melanoma = system: UACC-257 melanoma
OVCAR-3 ovarian = system: OVCAR-3 ovarian
OVCAR-8 ovarian = system: OVCAR-8 ovarian
MDA-MB-435 = system: MDA-MB-435
HL-60(TB) leukemia = system: HL-60(TB) leukemia
NCI-H226 lung = system: NCI-H226 lung
MALME-3M melanoma = system: MALME-3M melanoma
HCT-116 colon = system: HCT-116 colon
HCT-15 colon = system: HCT-15 colon
MDA-MB-231 breast = system: MDA-MB-231 breast
SF-295 CNS = system: SF-295 CNS
LOX IMVI melanoma = system: LOX IMVI melanoma
T-47D breast = system: T-47D breast
NCI/ADR-RES ovarian = system: NCI/ADR-RES ovarian
NCI-H522 lung = system: NCI-H522 lung
HOP-92 NSCLC = system: HOP-92 NSCLC
SK-MEL-5 melanoma = system: SK-MEL-5 melanoma
PC-3 prostate = system: PC-3 prostate
MDA-N = system: MDA-N
CAKI-1 renal = system: CAKI-1 renal
TK-10 renal = system: TK-10 renal
MCF7 breast = system: MCF7 breast
ACHN renal = system: ACHN renal
786-0 renal = system: 786-0 renal
SK-MEL-2 melanoma = system: SK-MEL-2 melanoma
KM12 colon = system: KM12 colon
CCRF-CEM leukemia = system: CCRF-CEM leukemia
A498 renal = system: A498 renal
K-562 leukemia = system: K-562 leukemia
OVCAR-5 ovarian = system: OVCAR-5 ovarian
DU-145 prostate = system: DU-145 prostate
SNB-19 CNS = system: SNB-19 CNS
RXF 393 renal = system: RXF 393 renal
M14 melanoma = system: M14 melanoma
NCI-H460 lung = system: NCI-H460 lung
COLO 205 colon = system: COLO 205 colon
SW-620 colon = system: SW-620 colon
SK-OV-3 ovarian = system: SK-OV-3 ovarian
SF-539 CNS = system: SF-539 CNS
HT29 colon = system: HT29 colon
HCC-2998 colon = system: HCC-2998 colon
SN12C renal = system: SN12C renal
MOLT-4 leukemia = system: MOLT-4 leukemia
UO-31 renal = system: UO-31 renal
SF-268 CNS = system: SF-268 CNS
IGROV1 ovarian = system: IGROV1 ovarian
SK-MEL-28 melanoma = system: SK-MEL-28 melanoma
HS 578T breast = system: HS 578T breast
OVCAR-4 ovarian = system: OVCAR-4 ovarian
EKVX NSCLC = system: EKVX NSCLC
RPMI-8226 leukemia = system: RPMI-8226 leukemia
SNB-75 CNS = system: SNB-75 CNS

Measured: TGI

CC(C#N)NCc1ccc(C(C)NC(C)C#N)cc1 (stereo unspecified)
not listed: RPMI-8226 leukemia | SNB-75 CNS
> 100 µM: all other assays above

OCc1cc2c([nH]c3ccccc32)c(C(O)CO)n1 (stereo unspecified)
not listed: RXF 393 renal
> 100 µM: all other assays above
